Data on 35 compounds can be found in paper PMC2225441, “Partial Restoration of Mutant Enzyme Homeostasis in Three Distinct Lysosomal Storage Disease Cell Lines by Altering Calcium Homeostasis” (PLoS Biology, 2008).

As usually defined, the pIC50 is the negative decadic logarithm of the IC50, by convention in mol/L.

One data set relates to L444P GC. In words: intact cell GC activity assay in homozygous L444P GC patient-derived fibroblasts. Format: cell-based, human. The note with it: for L444P GC activity, screen of VGCC blockers, ionotropic glutamate receptor inhibitors and other calcium channel blockers: intact cell GC activity assay, only the named compounds increased activity; for effect on L444P GC activity: 0.3–100 μM; for maximum increase in L444P GC activity: 30 μM; for L444P GC activity, screen of fifteen thermosensitive TRP channel modulators: intact cell GC enzyme assay, 5-d incubation, Figure S1, only the named compound increased activity.

Another data set concerns L444P fibroblasts. In words: cytotoxicity to L444P fibroblasts. Format: cell-based, human. The note with it: high concentrations (>10 μM).
The next data set has as its system Ca^2+ channel. The note with it: previously reported; read-out: Ca^2+ channel blocker IC50; cited from earlier work.
Another data set deals with ΔF508 CFTR. The following applies: SERCA inhibitor; cited from earlier work.
The mark [1] stands for this setting: 7 d, intact cell assay, Figure 3D.

The structures appear in SMILES notation. pIC50: −log10 of the molar value.

Turning to `O=C(O)c1cc(=O)c2c(Cl)cc(Cl)cc2[nH]1` [5,7-dichlorokynurenic acid], in the data set on L444P GC, the “L444P GC activity, screen of VGCC blockers, ionotropic glutamate receptor inhibitors and other calcium channel blockers” value was “only diltiazem and verapamil”.

Take `COc1ccc([C@@H]2Sc3ccccc3NC(=O)[C@@H]2O)cc1` [Compound 6]: the “toxicity to L444P fibroblasts” value in the data set on L444P fibroblasts is “toxic”. Also, the “effect on L444P GC activity” value in the data set with L444P GC (setting [1]) is “do not increase L444P GC activity”.

As to `CN(C)CCN1C(=O)[C@H](O)[C@H](c2ccc(O)cc2)Sc2ccccc21` [Compound 3], the pIC50 with Ca^2+ channel is 4.34. For the same compound, the “maximum increase in L444P GC activity” value with L444P GC (setting [1]) is 1.3 fold.

With `CCCCc1oc2ccccc2c1C(=O)c1cc(I)c(OCCN(CC)CC)c(I)c1` [amiodarone], the “L444P GC activity, screen of VGCC blockers, ionotropic glutamate receptor inhibitors and other calcium channel blockers” value in the data set on L444P GC is “only diltiazem and verapamil”.

Turning to `COc1ccc(CCCOC(Cn2ccnc2)c2ccc(OC)cc2)cc1` (stereo not shown) [SKF 96365], the “L444P GC activity, screen of VGCC blockers, ionotropic glutamate receptor inhibitors and other calcium channel blockers” value in the data set on L444P GC was “only diltiazem and verapamil”.

`COCCOC(=O)C1=C(C)NC(C)=C(C(=O)OC(C)C)C1c1cccc([N+](=O)[O-])c1` (stereo not shown) [nimodipine]: the “L444P GC activity, screen of VGCC blockers, ionotropic glutamate receptor inhibitors and other calcium channel blockers” value in the data set with L444P GC is “only diltiazem and verapamil”.

Take `NC(=O)OCC(COC(N)=O)c1ccccc1` [felbamate]: the “L444P GC activity, screen of VGCC blockers, ionotropic glutamate receptor inhibitors and other calcium channel blockers” value in the data set on L444P GC was “only diltiazem and verapamil”.

As to `C=CCN=C=S` [allylisothiocyanate], in the data set on L444P GC, the “L444P GC activity, screen of fifteen thermosensitive TRP channel modulators” value is given as “Only ruthenium red notably increased”.

`COc1cc(/C=C/C(=O)CC(=O)/C=C/c2ccc(O)c(OC)c2)ccc1O` [curcumin]: the “folding and trafficking of ΔF508 CFTR” value in the data set on ΔF508 CFTR is “enhance folding and trafficking of ΔF508 CFTR”.

For `NCCOB(c1ccccc1)c1ccccc1` [Compound 2-APB, 2-APB], the “L444P GC activity, screen of fifteen thermosensitive TRP channel modulators” value in the data set with L444P GC is “Only ruthenium red notably increased”.

Consider `COc1ccc([C@@H]2Sc3ccccc3NC(=O)[C@@H]2OC(C)=O)cc1` [Compound 5], for which the “toxicity to L444P fibroblasts” value in the data set with L444P fibroblasts is listed as “toxic”. In addition, the “effect on L444P GC activity” value in the data set with L444P GC (setting [1]) is given as “do not increase L444P GC activity”.

Turning to `Cc1cc(-c2ccc(/N=N/c3ccc4c(S(=O)(=O)O)cc(S(=O)(=O)O)c(N)c4c3O)c(C)c2)ccc1/N=N/c1ccc2c(S(=O)(=O)O)cc(S(=O)(=O)O)c(N)c2c1O` [Evans blue], the “L444P GC activity, screen of VGCC blockers, ionotropic glutamate receptor inhibitors and other calcium channel blockers” value in the data set on L444P GC is “only diltiazem and verapamil”.

Consider `CC12CCC(CC1=O)C2(C)C` (stereo not shown) [camphor], for which the “L444P GC activity, screen of fifteen thermosensitive TRP channel modulators” value with L444P GC is recorded as “Only ruthenium red notably increased”.

As for `CCCCCCCC/C=C\CCCCCCCC(=O)NCc1ccc(O)c(OC)c1` [olvanil], in the data set on L444P GC, the “L444P GC activity, screen of fifteen thermosensitive TRP channel modulators” value is “Only ruthenium red notably increased”.

For the compound `O=[N+]([O-])c1cc2nc(O)c(O)nc2cc1[N+](=O)[O-]` [DNQX], the “L444P GC activity, screen of VGCC blockers, ionotropic glutamate receptor inhibitors and other calcium channel blockers” value in the data set on L444P GC was “only diltiazem and verapamil”.

As for `CNCCN1C(=O)[C@H](O)[C@H](c2ccc(O)cc2)Sc2ccccc21` [Compound 4], in the data set on Ca^2+ channel, the pIC50 is 3.90. Also, the “maximum increase in L444P GC activity” value in the data set with L444P GC (setting [1]) was 1.2 fold.

For the compound `CC(C)COCC(CN(Cc1ccccc1)c1ccccc1)N1CCCC1` (stereo not shown) [bepridil], in the data set with L444P GC, the “L444P GC activity, screen of VGCC blockers, ionotropic glutamate receptor inhibitors and other calcium channel blockers” value was “only diltiazem and verapamil”.

For the compound `Fc1ccc(C(c2ccc(F)cc2)N2CCN(C/C=C/c3ccccc3)CC2)cc1` [flunarizine], the “L444P GC activity, screen of VGCC blockers, ionotropic glutamate receptor inhibitors and other calcium channel blockers” value in the data set on L444P GC is “only diltiazem and verapamil”.

In the case of `O=C1NC(c2cccc([N+](=O)[O-])c2)=CCN1c1ccccc1O` [icilin], the “L444P GC activity, screen of fifteen thermosensitive TRP channel modulators” value with L444P GC is reported as “Only ruthenium red notably increased”.

Take `C/C=C(/C)C(=O)O[C@H]1C(C)=C2[C@H]([C@@H]1OC(=O)CCCCCCC)[C@@](C)(OC(C)=O)C[C@H](OC(=O)CCC)[C@@]1(O)[C@H]2OC(=O)[C@@]1(C)O` [thapsigargin]: the “folding and trafficking of ΔF508 CFTR” value in the data set with ΔF508 CFTR is “enhance folding and trafficking of ΔF508 CFTR”. In addition, the “L444P GC folding, trafficking, or lysosomal activity” value with L444P GC (Figure S4) is given as “does not enhance L444P GC folding, trafficking, or lysosomal activity”. The “influence on L444P GC activity at higher concentration” value in the data set on L444P GC (alone, above 1 nM, 7-d incubation, Figure S4) is “decreased L444P GC activity significantly”. In the data set on L444P GC (alone, until 1 nM, 7 d, Figure S4), the “influence on L444P GC activity at low concentration” value is given as “no influence on GC activity”. The “L444P GC activity on co-application with diltiazem” value in the data set with L444P GC (varying concentrations with 10 μM diltiazem, 7 d, Figure S4) is recorded as “dose-dependent decrease of GC activity”.

Consider `COc1ccc([C@@H]2Sc3ccccc3N(CCN(C)C)C(=O)[C@@H]2O)cc1` [Compound 2], for which, in the data set on L444P GC (10 μM, 7 d, intact cell assay, Figure 3D), the “maximum increase of L444P lysosomal GC activity” value is 2.1 fold.

As for `N.N.N.N.N.N.N.N.N.N.N.N.N.N.[Cl-].[Cl-].[Cl-].[Cl-].[Cl-].[Cl-].[O-2].[O-2].[Ru+3].[Ru+3].[Ru+4]` [ruthenium red], the “L444P GC activity, screen of fifteen thermosensitive TRP channel modulators” value in the data set with L444P GC is listed as “notably increased”.

Turning to `COCC(=O)O[C@]1(CCN(C)CCCc2nc3ccccc3[nH]2)CCc2cc(F)ccc2[C@@H]1C(C)C` [mibefradil], the “L444P GC activity, screen of VGCC blockers, ionotropic glutamate receptor inhibitors and other calcium channel blockers” value in the data set with L444P GC is “only diltiazem and verapamil”.

As for `CC12CCC(CC1)C(C)(C)O2` [eucalyptol], the “L444P GC activity, screen of fifteen thermosensitive TRP channel modulators” value with L444P GC is reported as “Only ruthenium red notably increased”.

In the case of `COc1cc(CNC(=O)CCCC/C=C/C(C)C)ccc1O` [capsaicin], in the data set with L444P GC, the “L444P GC activity, screen of fifteen thermosensitive TRP channel modulators” value was “Only ruthenium red notably increased”.

On to `CCC1(C)CC(=O)NC1=O` (stereo not shown) [ethosuximide], for which, in the data set with L444P GC, the “L444P GC activity, screen of VGCC blockers, ionotropic glutamate receptor inhibitors and other calcium channel blockers” value was “only diltiazem and verapamil”.

Take `CCOC(=O)C(N)/C=C(\C)CP(=O)(O)O` (stereo not shown) [CGP 39551]: the “L444P GC activity, screen of VGCC blockers, ionotropic glutamate receptor inhibitors and other calcium channel blockers” value in the data set with L444P GC was “only diltiazem and verapamil”.

Regarding `CCCCCCCCCC(=O)O[C@@H]1[C@@H](C)[C@@]2(O)[C@@H](C=C(CO)C[C@@]3(O)C(=O)C(C)=C[C@@H]23)[C@@H]2C(C)(C)[C@]12OC(=O)CCCCCCCCC` [Compound 4α-PDD, 4α-PDD], the “L444P GC activity, screen of fifteen thermosensitive TRP channel modulators” value with L444P GC was “Only ruthenium red notably increased”.

Consider `CN(C)C(=O)C(CCN1CCC(O)(c2ccc(Cl)cc2)CC1)(c1ccccc1)c1ccccc1` [loperamide], for which, in the data set on L444P GC, the “L444P GC activity, screen of VGCC blockers, ionotropic glutamate receptor inhibitors and other calcium channel blockers” value was “only diltiazem and verapamil”.

Turning to `CC1CCC(C(C)C)C(O)C1` (stereo not shown) [menthol], the “L444P GC activity, screen of fifteen thermosensitive TRP channel modulators” value in the data set on L444P GC is listed as “Only ruthenium red notably increased”.

For the compound `Oc1cc2c(cc1O)CN(C(=S)NCCc1ccc(Cl)cc1)CCC2` [capsazepine], in the data set with L444P GC, the “L444P GC activity, screen of fifteen thermosensitive TRP channel modulators” value is “Only ruthenium red notably increased”.

In the case of `C=C(C)[C@]12C[C@@H](C)[C@@]34O[C@](Cc5ccccc5)(O[C@@H]1[C@@H]3C=C(COC(=O)Cc1ccc(O)c(OC)c1)C[C@]1(O)C(=O)C(C)=C[C@@H]41)O2` [resiniferatoxin], the “L444P GC activity, screen of fifteen thermosensitive TRP channel modulators” value in the data set on L444P GC was “Only ruthenium red notably increased”.

For the compound `CCCCC/C=C\C/C=C\C/C=C\C/C=C\CCCC(=O)NCCO` [anandamide], the “L444P GC activity, screen of fifteen thermosensitive TRP channel modulators” value in the data set with L444P GC is on record as “Only ruthenium red notably increased”.

As for `O=C/C=C/c1ccccc1` [cinnamaldehyde], in the data set with L444P GC, the “L444P GC activity, screen of fifteen thermosensitive TRP channel modulators” value is reported as “Only ruthenium red notably increased”.

In the case of `O=C(/C=C/C=C/c1ccc2c(c1)OCO2)N1CCCCC1` [piperine], the “L444P GC activity, screen of fifteen thermosensitive TRP channel modulators” value in the data set with L444P GC is “Only ruthenium red notably increased”.
